Reference: patent US8993606B2, “Oral formulations for treating metal overload” (FerroKin BioSciences, Inc., priority 2011, dated 2015)
Where two headings read alike, the source gives them in different places.

Test: Example 9: single-dose study in healthy human subjects 30-75 mg/kg and 20 mg/kg x 2 (PK)
Format: in vivo
Conditions: for Vd/F / AUC(0-inf) / AUC(0-t) / Cmax / half-life / Tmax / CL renal: human; for Vd/F / AUC(0-inf) / AUC(0-t) / Cmax / half-life / Tmax: plasma; for Vd/F: read-out: VZ/F; for CL renal: urine and plasma
Experimental: Example 9 was a single-dose escalating study in healthy volunteers. The objectives of the study were to assess the safety, tolerability, pharmacokinetic, and pharmacodynamics of single ascending doses of Compound 1. The doses tested were 30, 40, 50, 60, and 75 mg/kg once daily and a regimen of 20 mg/kg twice a day, which extended the range of doses evaluated. This Example confirms the earlier results obtained with higher dosage, as described in Example 7.
This was a single-center, double-blind, placebo-controlled study of ascending single oral doses of Compound 1. Six cohorts of 8 subjects (30 and 50 mg/kg single doses) or 5 subjects (40, 60, and 75 mg/kg single doses and 20 mg/kg×2 doses at 12 hour intervals) were dosed sequentially with Compound 1. Within each cohort, 7 or 4 subjects received Compound 1 and 1 subject received placebo. Subjects in the 20 mg/kg×2 doses cohort received a dose the evening prior to the study day (Day −1), approximately 12 hours prior to dosing on Day 1. The dose administered on Day −1 followed a 2-hour fast and that on Day 1 a 10-hour fast.
A total of 36 subjects were enrolled and all subjects completed the study. The 30 subjects that received active drug comprised the pharmacokinetic (PK) analysis population.
[…] subjects receiving a single dose, blood samples for the measurement of the total (free and iron bound complex) plasma concentrations of Compound 1 were collected before and 0.25, 0.5, 0.75, 1, 1.25, 1.5, 2, 2.5, 4, 8, 12, 24, 48, 72, and 96 hours after dosing. Subjects receiving two doses of 20 mg/kg had blood collected prior and 0.5, 1, 1.5, 2, and 2.5 hours after the first dose. After the second dose in the morning of Day 1, the sampling schedule was identical to that used for subjects receiving a single dose.
In all cohorts, urine was collected in pooled intervals of 0-4, 4-8, 8-12 and 12-24 hours after the dose on Day 1 for the analysis of Compound 1 concentrations.

[1] = 20 mg/kg × 2 at 12-hour interval
[2] = oral, 20 mg/kg × 2, for the total dose of 40 mg/kg

In the case of COCCOCCOCCOc1cccc(C2=N[C@@](C)(C(=O)O)CS2)c1O [Compound 1, (S)-4,5-Dihydro-2-[2-hydroxy-3-(3,6,9-trioxadecyloxy)phenyl]-4-methyl-4-thiazolecarboxylate magnesium hydroxide], the CL/F (20 mg/kg × 2, calculated with total dose of 40 mg/kg) is reported as 235 ± 96.2 mL/min, the “Ue(0-24)” value [1] is reported as 805 ± 208 mg and the λZ [1] is reported as 0.0744 ± 0.0158 h⁻¹. For the same compound, the “dose recovered in the urine over 24-hour post-dose period” value (30 and 40 mg/kg) was “approximately 55%”, the Vd/F (oral, 20 mg/kg × 2, calculated with total dose of 40 mg/kg) was 208 ± 136 L and the AUC(0-inf) [2] was 231 µg·h/mL. It also gave an AUC(0-t) [2] of 221 µg·h/mL, a Cmax (oral, 20 mg/kg × 2 at 12-hour interval, for the second dose) of 52.9 µg/mL and a half-life (oral, 20 mg/kg × 2 at 12-hour interval, read-out: t1/2 (converted)) of 578 ± 137 min. For the same compound, the Tmax (oral, 20 mg/kg × 2 at 12-hour interval, second dose, median, read-out: tmax) was 0.75 h, the Tmax (oral, across cohorts, read-out: median values for Tmax, range) was 1 to 1.5 h and the half-life (oral, across cohorts, read-out: t1/2, range) was 502 to 1120 min. The AUC(0-inf) (single oral dose 30 mg/kg) was 161 µg·h/mL, the AUC(0-t) (single oral dose 30 mg/kg) was 155 µg·h/mL and the Cmax (single oral dose 30 mg/kg) was 68.2 µg/mL. The Tmax (single oral dose 30 mg/kg, median, read-out: tmax) was 1 h, the Vd/F (single oral dose 30 mg/kg) was 248 ± 58.8 L and the half-life (single oral dose 30 mg/kg, read-out: t1/2 (converted)) was 726 ± 183 min. For the same compound, the AUC(0-inf) (single oral dose 40 mg/kg) was 195 µg·h/mL, the AUC(0-t) (single oral dose 40 mg/kg) was 205 µg·h/mL and the Cmax (single oral dose 40 mg/kg) was 87.9 µg/mL. For the same compound, the Tmax (single oral dose 40 mg/kg, median, read-out: tmax) was 1.38 h, the Vd/F (single oral dose 40 mg/kg) was 542 ± 657 L and the half-life (single oral dose 40 mg/kg, read-out: t1/2 (converted)) was 1120 ± 1150 min. It also gave an AUC(0-inf) (single oral dose 50 mg/kg) of 236 µg·h/mL, an AUC(0-t) (single oral dose 50 mg/kg) of 254 µg·h/mL and a Cmax (single oral dose 50 mg/kg) of 91.7 µg/mL. For the same compound, the Tmax (single oral dose 50 mg/kg, median, read-out: tmax) was 1.5 h, the Vd/F (single oral dose 50 mg/kg) was 338 ± 272 L and the half-life (single oral dose 50 mg/kg, read-out: t1/2 (converted)) was 768 ± 460 min. It also gave an AUC(0-inf) (single oral dose 60 mg/kg) of 205 µg·h/mL, an AUC(0-t) (single oral dose 60 mg/kg) of 204 µg·h/mL and a Cmax (single oral dose 60 mg/kg) of 82.3 µg/mL. It also gave a Tmax (single oral dose 60 mg/kg, median, read-out: tmax) of 1.38 h, a Vd/F (single oral dose 60 mg/kg) of 454 ± 363 L and a half-life (single oral dose 60 mg/kg, read-out: t1/2 (converted)) of 660 ± 359 min. For the same compound, the AUC(0-inf) (single oral dose 75 mg/kg) was 247 µg·h/mL, the AUC(0-t) (single oral dose 75 mg/kg) was 244 µg·h/mL and the Cmax (single oral dose 75 mg/kg) was 84.6 µg/mL. It also gave a Tmax (single oral dose 75 mg/kg, median, read-out: tmax) of 1.38 h, a Vd/F (single oral dose 75 mg/kg) of 342 ± 83.6 L and a half-life (single oral dose 75 mg/kg, read-out: t1/2 (converted)) of 502 ± 230 min. It also gave a CL renal (oral, 20 mg/kg × 2 at 12-hour interval, read-out: CLr) of 131 ± 18.7 mL/min, a CL renal (oral, not dependent upon dose, read-out: Renal clearance, average) of roughly 140 mL/min and a CL renal (single oral dose 30 mg/kg, read-out: CLr) of 139 ± 13.2 mL/min. It also gave a CL renal (single oral dose 40 mg/kg, read-out: CLr) of 152 ± 18 mL/min, a CL renal (single oral dose 50 mg/kg, read-out: CLr) of 103 ± 16.2 mL/min and a CL renal (single oral dose 60 mg/kg, read-out: CLr) of 147 ± 28.2 mL/min. The CL renal (single oral dose 75 mg/kg, read-out: CLr) was 165 ± 42.7 mL/min, the CL/F (single oral dose 30 mg/kg) was 239 ± 17.2 mL/min and the “Fe(0-24)” value (single oral dose 30 mg/kg) was 54.8 ± 8.99 % Dose. The “Ue(0-24)” value (single oral dose 30 mg/kg) was 1,260 ± 255.3 mg, the λZ (single oral dose 30 mg/kg) was 0.0615 ± 0.0200 h⁻¹ and the CL/F (single oral dose 40 mg/kg) was 290 ± 73.8 mL/min. For the same compound, the “Fe(0-24)” value (single oral dose 40 mg/kg) was 57.1 ± 8.60 % Dose, the “Ue(0-24)” value (single oral dose 40 mg/kg) was 1,820 ± 397 mg and the λZ (single oral dose 40 mg/kg) was 0.0677 ± 0.0439 h⁻¹. For the same compound, the CL/F (single oral dose 50 mg/kg) was 286 ± 56.1 mL/min, the “Fe(0-24)” value (single oral dose 50 mg/kg) was 40.2 ± 8.69 % Dose and the “Ue(0-24)” value (single oral dose 50 mg/kg) was 1,500 ± 434 mg. For the same compound, the λZ (single oral dose 50 mg/kg) was 0.0664 ± 0.0292 h⁻¹, the CL/F (single oral dose 60 mg/kg) was 435 ± 117.0 mL/min and the “Fe(0-24)” value (single oral dose 60 mg/kg) was 33.7 ± 8.37 % Dose. For the same compound, the “Ue(0-24)” value (single oral dose 60 mg/kg) was 1,713 ± 480 mg, the λZ (single oral dose 60 mg/kg) was 0.0786 ± 0.0393 h⁻¹ and the CL/F (single oral dose 75 mg/kg) was 540 ± 237 mL/min. The “Fe(0-24)” value (single oral dose 75 mg/kg) was 35.0 ± 15.1 % Dose, the “Ue(0-24)” value (single oral dose 75 mg/kg) was 2,199 ± 1,189 mg and the λZ (single oral dose 75 mg/kg) was 0.0943 ± 0.0383 h⁻¹. The “dose recovered in the urine over 24-hour post-dose period” value (the 3 higher doses (50, 60, 75 mg/kg)) was “approximately 38%”.
